Data published in US4231946A, “14,15-Methylene derivatives of the estrane series and methods for preparing same” (VEB Jenapharm, priority 1978, dated 1980).
Like-named read-outs stand apart in the source and are kept apart here.

Assays:
[1] = tested on: mice (uterine fresh weight); assay: Uterine activity in mice (dose for doubling uterine fresh weight); format: in vivo, mouse; conditions: for Total dose for doubling uterine fresh weight: p.o.; for Uterine response / uterine activity (in words): Table 6
Excerpt: (§1) Uterine and contraceptive activities produced by selected
(§2) 14,15-methylene-17-ol-estratrienes in mice

mice = assay: Contraceptive activity in mice, single application on 1st day of gestation; format: in vivo, mouse; conditions: for Contraceptive activities related to IHE1 (ranking in words): among the other compounds of Table 6; for THE, % after single application of 10 mg/kg of body-wt. on the 1st day of gestation p.o.: mice, 10 mg/kg p.o.
Procedure: (§3) Gestation and nidation inhibition expressed in % were used as parameters for antifertility effects. GHE1 (gestation inhibitory effect) and IHE1 (nidation inhibitory effect) were related to the inhibition of the total of gestations or nidations, GHE2 and IHE2 were related to the inhibition of normal gestations or nidations within each group. […] GHE1, GHE2, IHE1 and IHE2 were calculated using the following formulae: [formula] n=number of females inseminated in each group v=test group
(§4) f=average number (x) of all implantations (IHE1) and of normal implantations (IHE2) p. female inseminated within a group, respectively.
(§5) For GHE1 and GHE2 the ED (effective doses) for the HE (inhibitory effect) 0%, 50%, and 95% as far as possible were determined by means of the probit analysis. The ED50 for IHE1 and IHE2 were determined graphically.
as §1, §2

[2] = General statement on antifertility effects and separation from uterine, estrogenic and antigonadotrophic activities; format: in vivo
inseminated rats = assay: Antinidation / Nidation Inhibition Test in inseminated rats treated on the 1st day of gestation; format: in vivo, rat; conditions: for ED50 / ED5 / ED95: Rattus norvegicus, po, STS 593 from trial No. 2; for Female rats pregnant of n, normal / Female rats pregnant of n, total / GHE1 / GHE2 / IHE1 / IHE2 / Implantations per female (-x), normal / Implantations per female (-x), total: mestranol 0.2 mg/kg p.o.
Excerpt: The favorable biological properties of the named compounds of the process according to the invention are to be further illustrated and described in the example of 3-methoxy-14β-15β-methylene-estra-1,3,5(10)-triene-17β-ol (test designation STS 593).
as §3
k=control group (sesame oil)
x=number of all gestations (GHE1) and of normal gestations (GHE2) p. group, respectively
as §4
The comparison of the relative incidence of gestations was performed by the Ryan test, the comparison of the number of implantations by the Dunn test.
as §5

[3] = tested on: infantile female Wistar rats; assay: Uterine activity in infantile female Wistar rats; format: in vivo, Wistar rat; conditions: n=10
Excerpt: STS 593 was weaker than ethynylestradiol by a factor of 9 in its estrogenic properties as shown by the Allen-Doisy test in ovariectomized mice. The compound was only 7% as active as the standard mestranol in producing a uterine response in infantile rats (Table 3), whereas the antiestrogenic properties exceeded those of clomiphene citrate by a factor of 1.4.
Comparison of uterine activity in infantile female
Wistar rats produced by STS 593 and mestranol

rats (testicular mass) = assay: Antigonadotrophic activity (testicular mass) in rats; format: in vivo, rat; conditions: Rattus norvegicus, 120 h; rats; read-out: Effective dose for the HE50, antigonadotrophic
Procedure: The effective dose for the HE50 was close to 0.65 mg/kg of body-wt./5 d, while mestranol has the same effect at a dose as low as 0.15 mg/kg of body-wt./5 d.

infantile rabbit uteri = assay: McPhail test, progestagenic and antiprogestagenic activities in infantile rabbit uteri; format: in vivo; conditions: progesterone 4 mg/animal s.c. alone, total dose over 4 days; n=6
Excerpt: The HE of 97.3% is significant (Table 5).
Progestagenic and antiprogestagenic activities of STS 593
in infantile rabbit uteri as shown by the McPhail test

[4] = determined graphically, read-out: ED 50 for IHE1
[5] = determined graphically, read-out: ED 50 for IHE2
[6] = probit analysis, read-out: ED 50 for GHE1
[7] = probit analysis, read-out: ED 50 for GHE2
[8] = probit analysis, read-out: ED 05 for GHE1
[9] = probit analysis, read-out: ED 05 for GHE2
[10] = probit analysis, read-out: ED 95 for GHE1
[11] = probit analysis, read-out: ED 95 for GHE2

COc1ccc2c(c1)CC[C@@H]1[C@@H]2CC[C@]2(C)C(OC(=O)Nc3ccccc3)CC3C[C@@]312 (stereo partly drawn) [STS 594, 17phenylaminocarbnoyloxy-14β,15methylene-estra-1,3,5(10)-triene-3-mehylether]
Total dose for doubling uterine fresh weight [1]: 100 μg/animal

COc1ccc2c(c1)CC[C@@H]1[C@@H]2CC[C@@]2(C)[C@@]13C[C@@H]3C[C@]2(C)O [STS 681, 3-methoxy-17α-methyl-14β,15β-methylene-estra-1,3,5(10)-triene-17β-ol]
Uterine response / uterine activity (in words) [1]: distinctly weaker uterine activities
Total dose for doubling uterine fresh weight [1]: 0.56 μg/animal
Contraceptive activities related to IHE1 (ranking in words) (mice): strongest contraceptive activities
THE, % after single application of 10 mg/kg of body-wt. on the 1st day of gestation p.o. (mice): 81.7%
Antifertility effects (in words) ([2]; in vivo): strong antifertility effects
Separation of desirable contraceptive and undesirable uterine and antigonadotrophic activities ([2]; in vivo): very favorable separation

C#C[C@]1(O)CC[C@H]2[C@@H]3CCc4cc(O)ccc4[C@H]3CC[C@@]21C [Ethynylestradiol, reference compound]
ED50 (inseminated rats; [4]): 0.37 mg/kg
ED50 (inseminated rats; [5]): < 0.21 mg/kg
ED50 (inseminated rats; [6]): ≤ 0.45 mg/kg
ED50 (inseminated rats; [7]): < 0.3 mg/kg

COc1ccc2c(c1)CC[C@@H]1[C@@H]2CC[C@]2(C)C(OC(=O)Nc3ccccc3)CC3C[C@@]312 (stereo partly drawn) [STS 595, 17phenylaminocarbonyloxy-14β,15methylene-estra-1,3,5(10)-triene-3-mehylether]
Total dose for doubling uterine fresh weight [1]: 100 μg/animal

COc1ccc2c(c1)CC[C@@H]1[C@@H]2CC[C@]2(C)[C@@H](O)C[C@@H]3C[C@]312 [STS 651, 3-methoxy-14α,15α-methylene-estra-1,3,5(10)-triene-17β-ol]
ED50 (inseminated rats; [4]): 0.107 mg/kg
ED50 (inseminated rats; [5]): 0.096 mg/kg
ED5 (inseminated rats; [8]): 0.059 mg/kg
ED5 (inseminated rats; [9]): 0.043 mg/kg
ED50 (inseminated rats; [6]): 0.183 mg/kg
ED50 (inseminated rats; [7]): 0.11 mg/kg
ED95 (inseminated rats; [10]): 0.583 mg/kg
ED95 (inseminated rats; [11]): 0.265 mg/kg
Uterine response / uterine activity (in words) [1]: strongest uterine response
Total dose for doubling uterine fresh weight [1]: 0.2 μg/animal
Contraceptive activities related to IHE1 (ranking in words) (mice): strongest contraceptive activities
THE, % after single application of 10 mg/kg of body-wt. on the 1st day of gestation p.o. (mice): 84.4%

COc1ccc2c(c1)CC[C@@H]1[C@@H]2CC[C@]2(C)[C@H](O)C[C@H]3C[C@@]312 [STS 592, 3-methoxy-14β-15β-methylene-estra-1,3,5(10)-triene-17α-ol]
Uterine response / uterine activity (in words) [1]: distinctly weaker uterine activities
Total dose for doubling uterine fresh weight [1]: 7.0 μg/animal
THE, % after single application of 10 mg/kg of body-wt. on the 1st day of gestation p.o. (mice): 35.0%
Separation of desirable contraceptive and undesirable estrogenic effects ([2]; mice, among the compounds of Table 6): most favorable separation

COc1ccc2c(c1)CC[C@@H]1[C@@H]2CC[C@]2(C)[C@H](O)C[C@@H]3C[C@]312 [STS 652, 3-methoxy-14α,15α-methylene-estra-1,3,5(10)-triene-17α-ol]
Uterine response / uterine activity (in words) [1]: distinctly weaker uterine activities
Total dose for doubling uterine fresh weight [1]: 3.0 μg/animal
THE, % after single application of 10 mg/kg of body-wt. on the 1st day of gestation p.o. (mice): 60.0%
Separation of desirable contraceptive and undesirable uterine and antigonadotrophic activities ([2]; in vivo): very favorable separation

C#C[C@]1(O)CC[C@H]2[C@@H]3CCc4cc(OC)ccc4[C@H]3CC[C@@]21C [Mestranol, reference compound]
Female rats pregnant of n, normal (inseminated rats; 1st trial 1975, n=12): 1
Female rats pregnant of n, total (inseminated rats; 1st trial 1975, n=12): 11
GHE1 (inseminated rats; 1st trial 1975, n=12): 8.3%
GHE2 (inseminated rats; 1st trial 1975, n=12): 91.7%
IHE1 (inseminated rats; 1st trial 1975, n=12): 45.3%
IHE2 (inseminated rats; 1st trial 1975, n=12): 98.7%
Implantations per female (-x), normal (inseminated rats; 1st trial 1975, n=12): 0.2
Implantations per female (-x), total (inseminated rats; 1st trial 1975, n=12): 6.8
Female rats pregnant of n, normal (inseminated rats; 2nd trial 1978, n=10): 0
Female rats pregnant of n, total (inseminated rats; 2nd trial 1978, n=10): 6
GHE1 (inseminated rats; 2nd trial 1978, n=10): 40%
GHE2 (inseminated rats; 2nd trial 1978, n=10): 100%
IHE1 (inseminated rats; 2nd trial 1978, n=10): 70.8%
IHE2 (inseminated rats; 2nd trial 1978, n=10): 100%
Implantations per female (-x), normal (inseminated rats; 2nd trial 1978, n=10): 0
Implantations per female (-x), total (inseminated rats; 2nd trial 1978, n=10): 3.8
ED50 (inseminated rats; [4]): 0.17 mg/kg
ED50 (inseminated rats; [5]): 0.15 mg/kg
ED5 (inseminated rats; [8]): 0.097 mg/kg
ED5 (inseminated rats; [9]): 0.065 mg/kg
ED50 (inseminated rats; [6]): 0.34 mg/kg
ED50 (inseminated rats; [7]): 0.163 mg/kg
ED95 (inseminated rats; [10]): 1.11 mg/kg
ED95 (inseminated rats; [11]): 0.387 mg/kg
Uterine weight (-x) ([3]; mestranol total dose 0.6 per animal over 3 days p.o.): 70.11 mg
Uterine weight (-x) ([3]; mestranol total dose 6.0 per animal over 3 days p.o.): 95.45 mg
ED50 (rats (testicular mass)): 0.15 mg/kg

CC(=O)[C@H]1CC[C@H]2[C@@H]3CCC4=CC(=O)CC[C@]4(C)[C@H]3CC[C@]12C [Progesterone, reference compound]
McPhail index (-x) (infantile rabbit uteri): 3.0
